In brackets after ≈: the same amount, converted by molar mass. Several values for one entry are separate records, joined by “and”; a condition that tells them apart may be missing. Equal entries are not always repeated. Where two headings read alike, the source gives them in different places.
Assays:
[1] = system: Escherichia coli (ATCC-25922); assay: MIC, micro dilution method; format: cell-based; conditions: ATCC25922, E. coli
Procedure: (§1) The disk diffusion method was used for the preliminary antibacterial evaluation of 1-pyridylimidazo[1,5-a]pyridine derivatives. The MIC50 of these derivatives, showing inhibition in the preliminary tests, were further determined by the microtitre plate technique using micro dilution method. In brief, the bacterial strains (S. aureus, P. vulgaris, Group D Streptococci, Bacillus sp., E. coli, P. aeruginosa and S. morganii)) were grown and diluted to 2×10^5 colony-forming units (CFU)/ml in sodium phosphate buffer (SPB) containing 0.03% Luria–Bertani (LB) broth. The synthesized derivatives were dissolved in DMSO and their serial dilution was performed in 50 µL of LB medium in 96-well microtitre plate to achieve the required concentrations (0.1–10 µg/ml) with bacterial inoculums (5×10^4 CFU per well). DMSO was taken as negative control and Ceftriaxone and clotrimazole were taken as positive control. After incubation at 37°C overnight, the MICs were taken as the lowest inhibitor concentration at which the bacterial growth was inhibited. The average of three values was calculated and that was the MIC for the test material and bacterial strain. […]

[2] = system: Bacillus spp. (ATCC-14593); assay: MIC, micro dilution method; format: cell-based; conditions: ATCC14593; Bacillus sp.
Procedure: as §1

[3] = system: Proteus vulgaris (ATCC-29905); assay: MIC, micro dilution method; format: cell-based; conditions: ATCC29905, P. vulgaris
Procedure: as §1

[4] = system: Pseudomonas aeruginosa (ATCC-27853); assay: MIC, micro dilution method; format: cell-based; conditions: ATCC27853
Procedure: as §1

[5] = system: Staphylococcus aureus (ATCC-25923); assay: MIC, micro dilution method; format: cell-based; conditions: ATCC25923, S. aureus
Procedure: as §1

[6] = system: Escherichia coli (ATCC-25922); assay: MBC, sub cultivation from MIC plate; format: cell-based; conditions: ATCC25922, E. coli
Procedure: (§2) After having determined the MICs, bacterial strains from the wells of the microtitre plate with no visible bacterial growth were removed for serial sub cultivation of 2 µl into another new microtitre plate containing 100 µl of broth per well and further incubated for 24 h. The lowest concentration with no visible growth was defined as MBC [28], indicating 99.5% killing of the original inoculum. The absorbance of each well was measured at a wavelength of 620 nm by Microplate Manager 4.0 (Bio-Rad laboratories) and compared with a blank. Solvent (DMSO) was used as a negative control. Three replicates were done for each compound and experiment was repeated two times.

[7] = system: Bacillus spp. (ATCC-14593); assay: MBC, sub cultivation from MIC plate; format: cell-based; conditions: ATCC14593, Bacillus sp.
Procedure: as §2

[8] = system: Group D Streptococci (ATCC-12959); assay: MBC, sub cultivation from MIC plate; format: cell-based
Procedure: as §2

[9] = system: Serratia morganii (ATCC- 31665); assay: MBC, sub cultivation from MIC plate; format: cell-based
Procedure: as §2

[10] = system: Proteus vulgaris (ATCC-29905); assay: MBC, sub cultivation from MIC plate; format: cell-based; conditions: ATCC29905, P. vulgaris
Procedure: as §2

[11] = system: Pseudomonas aeruginosa (ATCC-27853); assay: MBC, sub cultivation from MIC plate; format: cell-based
Procedure: as §2

[12] = system: Staphylococcus aureus (ATCC-25923); assay: MBC, sub cultivation from MIC plate; format: cell-based; conditions: ATCC25923, S. aureus
Procedure: as §2

[13] = system: Group D Streptococci (ATCC-12959); assay: MIC, micro dilution method; format: cell-based
Procedure: (§3) The disk diffusion method was used for the preliminary antibacterial evaluation of 1-pyridylimidazo[1,5-a]pyridine derivatives. The MIC50 of these derivatives, showing inhibition in the preliminary tests, were further determined by the microtitre plate technique using micro dilution method. In brief, the bacterial strains (S. aureus, P. vulgaris, Group D Streptococci, Bacillus sp., E. coli, P. aeruginosa and S. morganii)) were grown and diluted to 2×10^5 colony-forming units (CFU)/ml in sodium phosphate buffer (SPB) containing 0.03% Luria–Bertani (LB) broth. The synthesized derivatives were dissolved in DMSO and their serial dilution was performed in 50 µL of LB medium in 96-well microtitre plate to achieve the required concentrations (0.1–10 µg/ml) with bacterial inoculums (5×10^4 CFU per well). DMSO was taken as negative control and Ceftriaxone and clotrimazole were taken as positive control. After incubation at 37°C overnight, the MICs were taken as the lowest inhibitor concentration at which the bacterial growth was inhibited. The average of three values was calculated and that was the MIC for the test material and bacterial strain.
(§4) For the agar plate count method, 25 µL aliquots of bacteria at 1×10^5 CFU/ml in SPB containing 0.03% LB broth were incubated with 25 µL of diluted compounds for 2 h at 37°C. The mixtures of bacteria and compounds were serially diluted 10-fold with SPB and plated on LB plates that were incubated at 37°C overnight. Bacterial colonies were enumerated the following day.

[14] = system: Serratia morganii (ATCC- 31665); assay: MIC, micro dilution method; format: cell-based; conditions: ATCC31665
Procedure: as §3, §4

[15] = system: Bacillus spp. (ATCC-14593); assay: MIC, micro dilution method; format: cell-based; conditions: ATCC14593; Bacillus sp.; remark: listed apart in the source
[16] = molecular target: T1, papain (Carica papaya, UniProt P00784); assay: Cysteine protease inhibitory activity, papain with Bz-DL-Arg-pNA substrate; format: biochemical; conditions: for Type of inhibition: Lineweaver–Burk plot; for IC50: papain
T1 construct: To solutions of active papain (final concentration: 0.05 mM); purchased Sigma Chemical Co., St. Louis, MO, USA
T1 sequence (P00784 134-345): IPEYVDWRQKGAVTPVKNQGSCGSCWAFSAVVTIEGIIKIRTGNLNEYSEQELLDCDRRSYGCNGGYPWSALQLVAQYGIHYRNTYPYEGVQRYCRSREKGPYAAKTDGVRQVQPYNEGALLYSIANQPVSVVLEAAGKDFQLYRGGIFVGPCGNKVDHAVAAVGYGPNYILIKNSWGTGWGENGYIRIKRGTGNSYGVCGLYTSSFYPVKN
Procedure: The capacity of the 1-pyridylimidazo[1,5-a]pyridine derivatives to inhibit cysteine proteases was tested using papain as the model enzyme. The proteolytic activity of the reaction mixtures was determined using Bz-DL-Arg-pNA as the chromogenic substrate. To solutions of active papain (final concentration: 0.05 mM) were added concentrated solutions of the different derivatives to final concentrations of 0.2 mM. […] The same procedure was used at 32°C and 42°C for thermodynamics studies. The kinetic parameters for the substrate hydrolysis were determined by measuring the initial rate of enzymatic activity. The inhibition constant Ki was determined by Dixon method and also by the Lineweaver–Burk equation. The Km value was calculated from the double-reciprocal equation by fitting the data into the computer software Origin 6.1. The Lineweaver–Burk plot was used to determine the types of inhibition. For the kinetic analysis and rate constant determinations, the assays were carried out in triplicate, and the average value was considered throughout this work.

[17] = molecular target: T1, papain; assay: Thermodynamics analysis of papain inhibition (Van't Hoff); format: biochemical; conditions: Value at 37°C; for ΔH (enthalpy change): Van't Hoff plot
Procedure: Free energy changes of inhibition of papain against 1- substituted pyridylimidazo[1,5-a] pyridine derivatives (ΔG) were determined by the equation, [drawing 1] (1)
Temperature dependence of the inhibition constants was used to determine the thermodynamic parameters. Changes in enthalpy (ΔH) were determined from the Van’t Hoff plots by using the equation, [drawing 2] (2)
Where ΔH is enthalpy change, R is gas constant, ΔS is entropy change and T is the absolute temperature. The entropy change was obtained from the equation, [drawing 3] (3)

Row | Structure (SMILES) | MIC50 [1] [µg/mL] | MIC90 [1] [µg/mL] | MIC50 [2] [µg/mL] | MIC50 [3] [µg/mL] | MIC90 [3] [µg/mL] | MIC50 [4] [µg/mL] | MIC90 [4] [µg/mL] | MIC50 [5] [µg/mL] | MIC90 [5] [µg/mL] | MBC ([6]; read-out: MBC50) [µg/mL] | MBC ([6]; read-out: MBC90) [µg/mL] | MBC ([7]; read-out: MBC50) [µg/mL] | MBC ([7]; read-out: MBC90) [µg/mL] | MBC ([10]; read-out: MBC50) [µg/mL] | MBC ([10]; read-out: MBC90) [µg/mL] | MBC ([11]; ATCC27853, read-out: MBC50) [µg/mL] | MBC ([11]; ATCC27853, read-out: MBC90) [µg/mL] | MBC ([12]; read-out: MBC50) [µg/mL] | MBC ([12]; read-out: MBC90) [µg/mL] | MIC90 [15] [µg/mL] | also measured
1 | Oc1ccccc1-c1nc(-c2ccccn2)c2ccccn12 [Compound 3a, 1-(2-pyridyl)-3-(2-hydroxyphenyl) imidazo[1,5-a]pyridine] | 0.6 (≈ 2.09 µM) | 0.99 (≈ 3.45 µM) | 0.6 (≈ 2.09 µM) | 0.8 (≈ 2.78 µM) | 1.6 (≈ 5.57 µM) | 0.6 (≈ 2.09 µM) | 1.09 (≈ 3.79 µM) | 0.9 (≈ 3.13 µM) | 1.7 (≈ 5.92 µM) | 1.3 (≈ 4.52 µM) | 2.1 (≈ 7.31 µM) | 1.2 (≈ 4.18 µM) | 2.3 (≈ 8 µM) | 1.6 (≈ 5.57 µM) | 3.1 (≈ 10.8 µM) | 1.1 (≈ 3.83 µM) | 1.9 (≈ 6.61 µM) | 1.8 (≈ 6.26 µM) | 3.5 (≈ 12.2 µM) | 1.2 (≈ 4.18 µM) | MBC ([8]; read-out: MBC50): 1.3 µg/mL (≈ 4.52 µM); MBC ([8]; read-out: MBC90): 2.5 µg/mL (≈ 8.7 µM); MBC ([9]; ATCC31665, read-out: MBC50): 1.6 µg/mL (≈ 5.57 µM); MBC ([9]; ATCC31665, read-out: MBC90): 3.1 µg/mL (≈ 10.8 µM); MIC50 [13]: 0.7 µg/mL (≈ 2.44 µM); MIC90 [13]: 1.3 µg/mL (≈ 4.52 µM); MIC50 [14]: 0.8 µg/mL (≈ 2.78 µM); MIC90 [14]: 1.5 µg/mL (≈ 5.22 µM); Ki ([16]; 32°C): 14.3 µM; Ki ([16]; 37°C): 13.7 µM; Ki ([16]; 42°C): 11.1 µM; Type of inhibition [16]: Non- Competitive; IC50 [16]: 13.4 µM; ΔG (free energy of binding) [17]: −6.86 Kcalmol^−1 and −6.86(±0.30) Kcalmol^−1; ΔS (entropy change) [17]: 72.92 (±2.33) Jmol-K^−1; ΔH (enthalpy change) [17]: −6.2(±0.88) KJmol^−1
2 | CO/N=C(\C(=O)N[C@@H]1C(=O)N2C(C(=O)O)=C(CSc3nc(=O)c(=O)[nH]n3C)CS[C@H]12)c1csc(N)n1 [Ceftriaxone, reference compound] | 0.07 (≈ 0.126 µM) | 0.12 (≈ 0.216 µM) | 0.8 (≈ 1.44 µM) | 0.4 (≈ 0.721 µM) | 0.8 (≈ 1.44 µM) | 1.5 (≈ 2.7 µM) | 3 (≈ 5.41 µM) | 3.8 (≈ 6.85 µM) | 6 (≈ 10.8 µM) | 0.14 (≈ 0.252 µM) | 0.24 (≈ 0.433 µM) | 1.7 (≈ 3.07 µM) | 3.1 (≈ 5.59 µM) | 0.9 (≈ 1.62 µM) | 1.2 (≈ 2.16 µM) | 3.2 (≈ 5.77 µM) | 5.5 (≈ 9.92 µM) | 7 (≈ 12.6 µM) | 10 (≈ 18 µM) | 1.6 (≈ 2.89 µM) | MBC ([8]; read-out: MBC50): 1.5 µg/mL (≈ 2.7 µM); MBC ([8]; read-out: MBC90): 1.9 µg/mL (≈ 3.43 µM); MBC ([9]; ATCC31665, read-out: MBC50): 1.7 µg/mL (≈ 3.07 µM); MBC ([9]; ATCC31665, read-out: MBC90): 3.3 µg/mL (≈ 5.95 µM); MIC50 [13]: 0.08 µg/mL (≈ 0.144 µM); MIC90 [13]: 1.4 µg/mL (≈ 2.52 µM); MIC50 [14]: 0.9 µg/mL (≈ 1.62 µM); MIC90 [14]: 1.5 µg/mL (≈ 2.7 µM)
3 | Clc1ccccc1C(c1ccccc1)(c1ccccc1)n1ccnc1 [Clotrimazole, 1-[(2-chlorophenyl)(diphenyl)methyl]-1H-imidazole, reference compound] | 45 (≈ 130 µM) | 85 (≈ 246 µM) | – | 0.00084 (≈ 0.00244 µM) | 0.00145 (≈ 0.0042 µM) | 40 (≈ 116 µM) | 75 (≈ 217 µM) | 0.0009 (≈ 0.00261 µM) | 0.0016 (≈ 0.00464 µM) | 75 (≈ 217 µM) | 144 (≈ 418 µM) | – | – | 0.0014 (≈ 0.00406 µM) | 0.0032 (≈ 0.00928 µM) | 68 (≈ 197 µM) | 134 (≈ 389 µM) | 0.0014 (≈ 0.00406 µM) | 0.003 (≈ 0.0087 µM) | – | –
4 | COc1ccc(-c2nc(-c3ccccn3)c3ccccn23)cc1 [Compound 3b, 1-(2-pyridyl)-3-(4-methoxyphenyl) imidazo[1,5-a]pyridine] | 1 (≈ 3.32 µM) | 1.8 (≈ 5.97 µM) | 0.9 (≈ 2.99 µM) | 0.8 (≈ 2.65 µM) | 1.5 (≈ 4.98 µM) | 1 (≈ 3.32 µM) | 1.8 (≈ 5.97 µM) | 1 (≈ 3.32 µM) | 1.9 (≈ 6.3 µM) | 1.9 (≈ 6.3 µM) | 2.9 (≈ 9.62 µM) | 1.7 (≈ 5.64 µM) | 3.2 (≈ 10.6 µM) | 1.6 (≈ 5.31 µM) | 3.2 (≈ 10.6 µM) | 2.1 (≈ 6.97 µM) | 4 (≈ 13.3 µM) | 2.3 (≈ 7.63 µM) | 4.5 (≈ 14.9 µM) | 1.7 (≈ 5.64 µM) | Ki ([16]; 32°C): 26.2 µM; Ki ([16]; 37°C): 23.2 µM; Ki ([16]; 42°C): 21.1 µM; Type of inhibition [16]: Competitive; IC50 [16]: 21.2 µM; ΔG (free energy of binding) [17]: −6.55 Kcalmol^−1 and −6.55(±0.33) Kcalmol^−1; ΔS (entropy change) [17]: 71.4 (±2.46) Jmol-K^−1; ΔH (enthalpy change) [17]: −5.3(±0.80) KJmol^−1

From paper PMC3734177, “Design, Synthesis, Evaluation and Thermodynamics of 1-Substituted Pyridylimidazo[1,5-a]Pyridine Derivatives as Cysteine Protease Inhibitors” (PLoS ONE, 2013)
